According to patent publication US9771369B2, “Compounds and methods for kinase modulation, and indications therefor” (Plexxikon Inc., priority 2014, dated 2017):

Assays:
c-kit mutant D816V = c-kit mutant D816V (Homo sapiens (Human), UniProt P10721, D816V/DEL694-753); test: c-Kit mutant D816V biochemical assay (AlphaScreen kinase activity)
Summary of the method: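 Recombinant His-tagged c-Kit D816V kinase domain (residues 551-934, insert 694-753 deleted, E. coli-expressed) phosphorylating 30 nM biotin-(E4Y)10 with 10 μM ATP, HEPES pH 7.2, Mg/Mn, 5% DMSO; 30 min, room temperature. Phosphorylation detected by AlphaScreen (streptavidin donor/PY30 acceptor beads); IC50 from 8-point 1:3 series.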

[1] = tested on: BaF3-FL KIT D816V or BaF3-FL KIT V560G/D816V cell line; test: Cell-based assays of c-Kit mutant kinase activity (cell proliferation, ATPlite); conditions: at least one of the c-kit cell assays of Example 7
Summary of the method: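 BaF3 cells dependent on transfected full-length human KIT D816V or V560G/D816V (pCI-Neo, CMV promoter) were seeded at 1×10^4 cells/well and exposed to 8-point 1:3 dilutions from 10 μM top (0.2% DMSO) for three days at 37° C. ATPlite luminescence gave cell number; IC50 from concentration-response.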

Sequence of c-kit mutant D816V (P10721 other isoform, or with tags, fused parts or gaps D816V/del 694-753): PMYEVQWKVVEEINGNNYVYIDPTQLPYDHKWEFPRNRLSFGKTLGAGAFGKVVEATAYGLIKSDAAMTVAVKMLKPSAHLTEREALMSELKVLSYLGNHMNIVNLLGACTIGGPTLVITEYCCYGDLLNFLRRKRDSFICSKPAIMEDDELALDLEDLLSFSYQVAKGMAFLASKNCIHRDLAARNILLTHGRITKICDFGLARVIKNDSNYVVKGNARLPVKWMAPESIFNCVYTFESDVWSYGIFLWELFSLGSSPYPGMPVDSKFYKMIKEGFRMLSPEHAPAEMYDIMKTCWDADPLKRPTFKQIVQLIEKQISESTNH

| SMILES | IC50 (c-kit mutant D816V) | IC50 [1] |
| --- | --- | --- |
| COc1cccc(-c2[nH]c(C3(C)CCN(c4ncnc5[nH]c(-c6ccc(OCC(=O)O)cc6)cc45)CC3)nc2C)c1 [P-3221, 2-[4-[4-[4-[5-(3-methoxyphenyl)-4-methyl-1H-imidazol-2-yl]-4-methyl-1-piperidyl]-7H-pyrrolo[2,3-d]pyrimidin-6-yl]phenoxy]acetic acid] | 0.0001 to 1 µM | < 10 µM |
| CNC(=O)c1ccc(-c2cc3c(N4CCC(C)(c5nc(C)c(-c6cccc(OC)c6)[nH]5)CC4)ncnc3[nH]2)cn1 [P-3222, 5-[4-[4-[5-(3-methoxyphenyl)-4-methyl-1H-imidazol-2-yl]-4-methyl-1-piperidyl]-7H-pyrrolo[2,3-d]pyrimidin-6-yl]-N-methyl-pyridine-2-carboxamide] | 0.0001 to 1 µM | < 10 µM |
| COc1cccc(-c2[nH]c(C3(C)CCN(c4ncnc5[nH]c(-c6ccc(N7CCOCC7)nc6)cc45)CC3)nc2C)c1 [P-3223, 4-[5-[4-[4-[5-(3-methoxyphenyl)-4-methyl-1H-imidazol-2-yl]-4-methyl-1-piperidyl]-7H-pyrrolo[2,3-d]pyrimidin-6-yl]-2-pyridyl]morpholine] | 0.0001 to 1 µM | < 10 µM |
| CCOc1ccc(-c2[nH]c(C3(C)CCN(c4ncnc5[nH]c(-c6ccc(OCC(=O)O)cc6)cc45)CC3)nc2C)cc1 [P-3224, 2-[4-[4-[4-[5-(4-ethoxyphenyl)-4-methyl-1H-imidazol-2-yl]-4-methyl-1-piperidyl]-7H-pyrrolo[2,3-d]pyrimidin-6-yl]phenoxy]acetic acid] | 0.0001 to 1 µM | < 10 µM |
| COc1cccc(-c2[nH]c(C3(C)CCN(c4ncnc5[nH]c(-c6ccc(C(N)=O)cc6)cc45)CC3)nc2C)c1 [P-3225, 4-[4-[4-[5-(3-methoxyphenyl)-4-methyl-1H-imidazol-2-yl]-4-methyl-1-piperidyl]-7H-pyrrolo[2,3-d]pyrimidin-6-yl]benzamide] | 0.0001 to 1 µM | < 10 µM |
| CCOc1ccc(-c2[nH]c(C3(C)CCN(c4ncnc5[nH]c(-c6ccc(C(=O)NC)nc6)cc45)CC3)nc2C)cc1 [P-3226, 5-[4-[4-[5-(4-ethoxyphenyl)-4-methyl-1H-imidazol-2-yl]-4-methyl-1-piperidyl]-7H-pyrrolo[2,3-d]pyrimidin-6-yl]-N-methyl-pyridine-2-carboxamide] | 0.0001 to 1 µM | < 10 µM |
| CCOc1ccc(-c2[nH]c(C3(C)CCN(c4ncnc5[nH]c(-c6ccc(N7CCOCC7)nc6)cc45)CC3)nc2C)cc1 [P-3227, 4-[5-[4-[4-[5-(4-ethoxyphenyl)-4-methyl-1H-imidazol-2-yl]-4-methyl-1-piperidyl]-7H-pyrrolo[2,3-d]pyrimidin-6-yl]-2-pyridyl]morpholine] | 0.0001 to 1 µM | < 10 µM |
| COc1ccc(-c2[nH]c(C3(C)CCN(c4ncnc5[nH]c(-c6ccc(NS(C)(=O)=O)cc6)cc45)CC3)nc2C)cc1C [P-3228, N-[4-[4-[4-[5-(4-methoxy-3-methyl-phenyl)-4-methyl-1H-imidazol-2-yl]-4-methyl-1-piperidyl]-7H-pyrrolo[2,3-d]pyrimidin-6-yl]phenyl]methanesulfonamide] | 0.0001 to 1 µM | < 10 µM |
| CCOc1ccc(-c2[nH]c(C3(C)CCN(c4ncnc5[nH]c(-c6ccc(C(N)=O)cc6)cc45)CC3)nc2C)cc1 [P-3229, 4-[4-[4-[5-(4-ethoxyphenyl)-4-methyl-1H-imidazol-2-yl]-4-methyl-1-piperidyl]-7H-pyrrolo[2,3-d]pyrimidin-6-yl]benzamide] | 0.0001 to 1 µM | < 10 µM |
| CCOc1ccc(-c2[nH]c(C3(C)CCN(c4ncnc5[nH]c(-c6ccc(NS(C)(=O)=O)cc6)cc45)CC3)nc2C)cc1 [P-3230, N-[4-[4-[4-[5-(4-ethoxyphenyl)-4-methyl-1H-imidazol-2-yl]-4-methyl-1-piperidyl]-7H-pyrrolo[2,3-d]pyrimidin-6-yl]phenyl]methanesulfonamide] | 0.0001 to 1 µM | < 10 µM |
| Cc1nc(C2(C)CCN(c3ncnc4[nH]c(-c5ccc(C(N)=O)cc5)cc34)CC2)[nH]c1-c1cccc(OC(F)F)c1 [P-3231, 4-[4-[4-[5-[3-(difluoromethoxy)phenyl]-4-methyl-1H-imidazol-2-yl]-4-methyl-1-piperidyl]-7H-pyrrolo[2,3-d]pyrimidin-6-yl]benzamide] | 0.0001 to 1 µM | < 10 µM |
| Cc1nc(C2(C)CCN(c3ncnc4[nH]c(-c5ccc(NS(C)(=O)=O)cc5)cc34)CC2)[nH]c1-c1cccc(OC(F)F)c1 [P-3232, N-[4-[4-[4-[5-[3-(difluoromethoxy)phenyl]-4-methyl-1H-imidazol-2-yl]-4-methyl-1-piperidyl]-7H-pyrrolo[2,3-d]pyrimidin-6-yl]phenyl]methanesulfonamide] | 0.0001 to 1 µM | < 10 µM |
| Cc1nc(C2(C)CCN(c3ncnc4[nH]c(-c5ccc(OCC(=O)O)cc5)cc34)CC2)[nH]c1-c1cccc(OC(F)F)c1 [P-3233, 2-[4-[4-[4-[5-[3-(difluoromethoxy)phenyl]-4-methyl-1H-imidazol-2-yl]-4-methyl-1-piperidyl]-7H-pyrrolo[2,3-d]pyrimidin-6-yl]phenoxy]acetic acid] | 0.0001 to 1 µM | < 10 µM |
| COc1cccc(-c2[nH]c(C3(C)CCN(c4ncnc5[nH]c(-c6ccc(NS(C)(=O)=O)cc6)cc45)CC3)nc2C)c1 [P-3234, N-[4-[4-[4-[5-(3-methoxyphenyl)-4-methyl-1H-imidazol-2-yl]-4-methyl-1-piperidyl]-7H-pyrrolo[2,3-d]pyrimidin-6-yl]phenyl]methanesulfonamide] | 0.0001 to 1 µM | < 10 µM |
| CNC(=O)c1ccc(-c2cc3c(N4CCC(C)(c5nc(C)c(-c6ccc(C(F)F)cc6)[nH]5)CC4)ncnc3[nH]2)cn1 [P-3235, 5-[4-[4-[5-[4-(difluoromethyl)phenyl]-4-methyl-1H-imidazol-2-yl]-4-methyl-1-piperidyl]-7H-pyrrolo[2,3-d]pyrimidin-6-yl]-N-methyl-pyridine-2-carboxamide] | 0.0001 to 1 µM | < 10 µM |
| CNC(=O)c1ccc(-c2cc3c(N4CCC(C)(c5nc(C)c(-c6cccc(OC(F)F)c6)[nH]5)CC4)ncnc3[nH]2)cn1 [P-3236, 5-[4-[4-[5-[3-(difluoromethoxy)phenyl]-4-methyl-1H-imidazol-2-yl]-4-methyl-1-piperidyl]-7H-pyrrolo[2,3-d]pyrimidin-6-yl]-N-methyl-pyridine-2-carb oxamide] | 0.0001 to 1 µM | < 10 µM |
| Cc1nc(C2(C)CCN(c3ncnc4[nH]c(-c5ccc(N6CCOCC6)nc5)cc34)CC2)[nH]c1-c1ccc(C(F)F)cc1 [P-3237, 4-[5-[4-[4-[5-[4-(difluoromethyl)phenyl]-4-methyl-1H-imidazol-2-yl]-4-methyl-1-piperidyl]-7H-pyrrolo[2,3-d]pyrimidin-6-yl]-2-pyridyl]morpholine] | 0.0001 to 1 µM | < 10 µM |
| Cc1nc(C2(C)CCN(c3ncnc4[nH]c(-c5ccc(N6CCOCC6)nc5)cc34)CC2)[nH]c1-c1cccc(OC(F)F)c1 [P-3238, 4-[5-[4-[4-[5-[3-(difluoromethoxy)phenyl]-4-methyl-1H-imidazol-2-yl]-4-methyl-1-piperidyl]-7H-pyrrolo[2,3-d]pyrimidin-6-yl]-2-pyridyl]morpholine] | 0.0001 to 1 µM | < 10 µM |
| Cc1nc(C2(C)CCN(c3ncnc4[nH]c(-c5ccc(C(N)=O)cc5)cc34)CC2)[nH]c1-c1ccc(C(F)F)cc1 [P-3239, 4-[4-[4-[5-[4-(difluoromethyl)phenyl]-4-methyl-1H-imidazol-2-yl]-4-methyl-1-piperidyl]-7H-pyrrolo[2,3-d]pyrimidin-6-yl]benzamide] | 0.0001 to 1 µM | < 10 µM |
| Cc1nc(C2(C)CCN(c3ncnc4[nH]c(-c5ccc(OCC(=O)O)cc5)cc34)CC2)[nH]c1-c1ccc(C(F)F)cc1 [P-3240, 2-[4-[4-[4-[5-[4-(difluoromethyl)phenyl]-4-methyl-1H-imidazol-2-yl]-4-methyl-1-piperidyl]-7H-pyrrolo[2,3-d]pyrimidin-6-yl]phenoxy]acetic acid] | 0.0001 to 1 µM | < 10 µM |
| Cc1nc(C2(C)CCN(c3ncnc4[nH]c(-c5ccc(OCC(=O)O)cc5)cc34)CC2)[nH]c1-c1ccc(OC(F)F)cc1 [P-3241, 2-[4-[4-[4-[5-[4-(difluoromethoxy)phenyl]-4-methyl-1H-imidazol-2-yl]-4-methyl-1-piperidyl]-7H-pyrrolo[2,3-d]pyrimidin-6-yl]phenoxy]acetic acid] | 0.0001 to 1 µM | < 10 µM |
| Cc1nc(C2(C)CCN(c3ncnc4[nH]c(-c5cnn(C(F)F)c5)cc34)CC2)[nH]c1-c1ccc(OC(F)F)cc1 [P-3242, 4-[4-[5-[4-(difluoromethoxy)phenyl]-4-methyl-1H-imidazol-2-yl]-4-methyl-1-piperidyl]-6-[1-(difluoromethyl)pyrazol-4-yl]-7H-pyrrolo[2,3-d]pyrimidine] | 0.0001 to 1 µM | < 10 µM |
| CCOc1ccc(-c2[nH]c(C3(C)CCN(c4ncnc5[nH]c(-c6ccc(C(N)=O)cc6)cc45)CC3)nc2C)cc1C [P-3243, 4-[4-[4-[5-(4-ethoxy-3-methyl-phenyl)-4-methyl-1H-imidazol-2-yl]-4-methyl-1-piperidyl]-7H-pyrrolo[2,3-d]pyrimidin-6-yl]benzamide] | 0.0001 to 1 µM | < 10 µM |
| CCOc1ccc(-c2[nH]c(C3(C)CCN(c4ncnc5[nH]c(-c6ccc(OCC(=O)O)cc6)cc45)CC3)nc2C)cc1C [P-3244, 2-[4-[4-[4-[5-(4-ethoxy-3-methyl-phenyl)-4-methyl-1H-imidazol-2-yl]-4-methyl-1-piperidyl]-7H-pyrrolo[2,3-d]pyrimidin-6-yl]phenoxy]acetic acid] | 0.0001 to 1 µM | < 10 µM |
